This is an account of results in ChEMBL document CHEMBL1137714, “Primaquine revisited six decades after its discovery” (Eur J Med Chem, 2009).

Series [1] can be described thus: Tmax in po dosed human. Type of series: ADME, organism-based. The following applies: in vivo.
Series [2] deals with Acetylcholinesterase (Homo sapiens) (UniProt P22303). In words: Inhibition of human erythrocyte AChE.
The species named for another series is Homo sapiens. The series can be described thus: Toxicity in human assessed as incidence of abdominal cramps at 22.5 to 30 mg/day. Format: organism-based, Abdomen. The note with it: in vivo.

Chain of Acetylcholinesterase (Homo sapiens) (P22303 whole entry): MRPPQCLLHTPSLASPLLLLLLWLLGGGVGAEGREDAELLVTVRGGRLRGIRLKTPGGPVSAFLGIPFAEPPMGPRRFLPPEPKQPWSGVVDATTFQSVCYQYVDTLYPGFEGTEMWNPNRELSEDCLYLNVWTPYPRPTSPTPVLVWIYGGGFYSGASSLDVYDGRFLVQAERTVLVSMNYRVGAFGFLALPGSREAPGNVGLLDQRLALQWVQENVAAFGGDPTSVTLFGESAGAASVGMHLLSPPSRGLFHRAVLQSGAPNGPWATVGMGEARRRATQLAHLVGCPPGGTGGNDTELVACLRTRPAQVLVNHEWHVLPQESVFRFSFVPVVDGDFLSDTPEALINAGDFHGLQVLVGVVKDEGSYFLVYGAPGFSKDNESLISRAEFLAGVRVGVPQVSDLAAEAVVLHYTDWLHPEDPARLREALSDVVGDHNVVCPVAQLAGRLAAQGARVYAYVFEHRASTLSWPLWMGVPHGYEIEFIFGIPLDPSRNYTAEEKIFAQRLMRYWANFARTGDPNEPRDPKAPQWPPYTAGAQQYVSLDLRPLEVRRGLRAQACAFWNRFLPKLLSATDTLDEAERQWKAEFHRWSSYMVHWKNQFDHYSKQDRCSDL

Usually Tmax stands for the time at which the peak concentration occurs. On to `COc1cc(NC(C)CCCN)c2ncccc2c1` (stereo not drawn) [PRIMAQUINE], for which the Tmax in series [1] stood at 12 h. Also, the IC33 in series [2] was 30 µM. For the same molecule, the Activity in the series filed under Homo sapiens stood at 10%.
